Patent publication US11299473B2, “Benzimidazole and indole compounds and uses thereof” (Incyte Corporation, priority 2018, dated 2022)
pKi: −log10 of the molar value.

Biological target: active HPK1 (SignalChem M23-11G) (Homo sapiens (Human), UniProt Q92918)
Assay: HPK1 Kinase Binding Assay
Conditions: LanthaScreen tracer 222 / Eu-Anti GST antibody, one hour incubation at 25° C.
Protocol: A stock solution of 1 mM test compound was prepared in DMSO. The compound plate was prepared by 3-fold and 11-point serial dilutions. 0.1 μL of the compound in DMSO was transferred from the compound plate to the white 384 well polystyrene plates. The assay buffer contained 50 mM HEPES, pH 7.5, 0.01% Tween-20, 5 mM MgCl2, 0.01% BSA, and 5 mM DTT. 5 μL of 4 nM active HPK1 (SignalChem M23-11G) prepared in the buffer was added to the plate. The enzyme concentration given was based on the given stock concentration reported by the vender. 5 μl of 18 nM tracer 222 (ThermoFisher PV6121) and 4 nM LanthaScreen Eu-Anti GST antibody (ThermoFisher PV5595) were added. After one hour incubation at 25° C., the plates were read on a PHERAstar FS plate reader (BMG Labtech). Ki values were determined.

Chain of active HPK1 (SignalChem M23-11G) (Q92918 1-346 limits assumed): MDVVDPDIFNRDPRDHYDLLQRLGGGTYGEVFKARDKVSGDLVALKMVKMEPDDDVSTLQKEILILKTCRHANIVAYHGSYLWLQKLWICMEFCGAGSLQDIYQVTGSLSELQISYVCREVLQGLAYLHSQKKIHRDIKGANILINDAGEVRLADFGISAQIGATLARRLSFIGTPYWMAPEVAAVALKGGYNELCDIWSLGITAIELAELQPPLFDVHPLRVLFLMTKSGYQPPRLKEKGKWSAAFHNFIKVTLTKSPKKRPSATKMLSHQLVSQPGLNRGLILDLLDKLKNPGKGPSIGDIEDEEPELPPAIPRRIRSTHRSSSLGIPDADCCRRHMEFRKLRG

pKi	Compound
≥ 7.00	COc1cccc(F)c1-c1nccc(C(=O)Nc2ccc3c(nc(-c4ncccc4F)n3C)c2N2C[C@H](N)C[C@H]2CO)n1 [Example 1, N-(4-((2S,4R)-4-Amino-2-(hydroxymethyl)pyrrolidin-1-yl)-2-(3-fluoropyridin-2-yl)-1-methyl-1H-benzo[d]imidazol-5-yl)-2-(2-fluoro-6-methoxyphenyl)pyrimidine-4-carboxamide]
≥ 7.00	Cn1c(-c2ncccc2F)nc2c(N3C[C@H](N)C[C@H]3CO)c(NC(=O)c3ccnc(-c4c(F)cccc4F)n3)ccc21 [Example 2, N-(4-((2S,4R)-4-Amino-2-(hydroxymethyl)pyrrolidin-1-yl)-2-(3-fluoropyridin-2-yl)-1-methyl-1H-benzo[d]imidazol-5-yl)-2-(2,6-difluorophenyl)pyrimidine-4-carboxamide]
≥ 7.00	COc1cccnc1-c1nc2c(N3C[C@H](N)C[C@H]3CO)c(NC(=O)c3ccnc(-c4c(F)cccc4F)n3)ccc2n1C [Example 3, N-(4-((2S,4R)-4-Amino-2-(hydroxymethyl)pyrrolidin-1-yl)-2-(3-methoxypyridin-2-yl)-1-methyl-1H-benzo[d]imidazol-5-yl)-2-(2,6-difluorophenyl)pyrimidine-4-carboxamide]
≥ 7.00	Cn1c(-c2ccccc2C#N)nc2c(N3C[C@H](N)C[C@H]3CO)c(NC(=O)c3ccnc(-c4c(F)cccc4F)n3)ccc21 [Example 4, N-(4-((2S,4R)-4-Amino-2-(hydroxymethyl)pyrrolidin-1-yl)-2-(2-cyanophenyl)-1-methyl-1H-benzo[d]imidazol-5-yl)-2-(2,6-difluorophenyl)pyrimidine-4-carboxamide]
≥ 7.00	N#Cc1ccccc1-c1nc2c(N3C[C@H](N)C[C@H]3CO)c(NC(=O)c3ccnc(-c4c(F)cccc4F)n3)ccc2n1C1CC1 [Example 5, N-(4-((2S,4R)-4-amino-2-(hydroxymethyl)pyrrolidin-1-yl)-2-(2-cyanophenyl)-1-cyclopropyl-1H-benzo[d]imidazol-5-yl)-2-(2,6-difluorophenyl)pyrimidine-4-carboxamide]
≥ 7.00	CN(c1c(NC(=O)c2ccnc(-c3c(F)cccc3F)n2)ccc2c1nc(-c1c(F)cncc1F)n2C)[C@@H]1CCCNC1 [Example 6, (R)-2-(2,6-Difluorophenyl)-N-(2-(3,5-difluoropyridin-4-yl)-1-methyl-4-(methyl(piperidin-3-yl)amino)-1H-benzo[d]imidazol-5-yl)pyrimidine-4-carboxamide]
≥ 7.00	Cn1c(-c2ccncc2F)nc2c(N3C[C@H](N)C[C@H]3CO)c(NC(=O)c3ccnc(-c4c(F)cccc4F)n3)ccc21 [Example 7, N-(4-((2S,4R)-4-Amino-2-(hydroxymethyl)pyrrolidin-1-yl)-2-(3-fluoropyridin-4-yl)-1-methyl-1H-benzo[d]imidazol-5-yl)-2-(2,6-difluorophenyl)pyrimidine-4-carboxamide]
≥ 7.00	COc1cccc(F)c1-c1nccc(C(=O)Nc2ccc3c(nc(-c4ccncc4F)n3C)c2N2CCOC[C@@H]2CN)n1 [Example 8, (S)—N-(4-(3-(Aminomethyl)morpholino)-2-(3-fluoropyridin-4-yl)-1-methyl-1H-benzo[d]imidazol-5-yl)-2-(2-fluoro-6-methoxyphenyl)pyrimidine-4-carboxamide]
≥ 7.00	Cn1c(-c2ccncc2F)nc2c(N3CCNC[C@@H]3CO)c(NC(=O)c3ccnc(-c4c(F)cccc4F)n3)ccc21 [Example 9, (R)-2-(2,6-Difluorophenyl)-N-(2-(3-fluoropyridin-4-yl)-4-(2-(hydroxymethyl)piperazin-1-yl)-1-methyl-1H-benzo[d]imidazol-5-yl)pyrimidine-4-carboxamide]
≥ 7.00	COc1cccc(F)c1-c1nccc(C(=O)Nc2ccc3c(nc(-c4ccncc4F)n3C)c2N2C[C@@H]3C[C@H]2CN3)n1 [Example 10, N-(4-((1S,4S)-2,5-Diazabicyclo[2.2.1]heptan-2-yl)-2-(3-fluoropyridin-4-yl)-1-methyl-1H-benzo[d]imidazol-5-yl)-2-(2-fluoro-6-methoxyphenyl)pyrimidine-4-carboxamide]
≥ 7.00	COc1cccc(F)c1-c1nccc(C(=O)Nc2ccc3c(nc(-c4ccncc4F)n3C)c2N2C[C@@H]3C[C@H]2CO3)n1 [Example 11, N-(4-((1S,4S)-2-Oxa-5-azabicyclo[2.2.1]heptan-5-yl)-2-(3-fluoropyridin-4-yl)-1-methyl-1H-benzo[d]imidazol-5-yl)-2-(2-fluoro-6-methoxyphenyl)pyrimidine-4-carboxamide]
≥ 7.00	COc1cccc(F)c1-c1nccc(C(=O)Nc2ccc3c(nc(C)n3C)c2N2CCC[C@H]2CN)n1 [Example 12, (S)—N-(4-(2-(Aminomethyl)pyrrolidin-1-yl)-1,2-dimethyl-1H-benzo[d]imidazol-5-yl)-2-(2-fluoro-6-methoxyphenyl)pyrimidine-4-carboxamide]
≥ 7.00	COc1cccc(F)c1-c1nccc(C(=O)Nc2ccc3c(nc(C)n3C)c2N2CCC[C@@H]2CN)n1 [Example 13, (R)—N-(4-(2-(Aminomethyl)pyrrolidin-1-yl)-1,2-dimethyl-1H-benzo[d]imidazol-5-yl)-2-(2-fluoro-6-methoxyphenyl)pyrimidine-4-carboxamide]
≥ 7.00	COc1cccc(F)c1-c1nccc(C(=O)Nc2ccc3c(nc(C)n3C)c2N2CCC[C@@H]2CO)n1 [Example 14, (R)-2-(2-Fluoro-6-methoxyphenyl)-N-(4-(2-(hydroxymethyl)pyrrolidin-1-yl)-1,2-dimethyl-1H-benzo[d]imidazol-5-yl)pyrimidine-4-carboxamide]
≥ 7.00	COc1cccc(F)c1-c1nccc(C(=O)Nc2ccc3c(nc(C)n3C)c2N2C[C@H](N)C[C@H]2CO)n1 [Example 15, N-(4-((2S,4R)-4-Amino-2-(hydroxymethyl)pyrrolidin-1-yl)-1,2-dimethyl-1H-benzo[d]imidazol-5-yl)-2-(2-fluoro-6-methoxyphenyl)pyrimidine-4-carboxamide]
≥ 7.00	COc1cccc(F)c1-c1nccc(C(=O)Nc2ccc3c(nc(C)n3C)c2N2C[C@H]3C[C@@H]2CN3)n1 [Example 16, N-(4-((1R,4R)-2,5-Diazabicyclo[2.2.1]heptan-2-yl)-1,2-dimethyl-1H-benzo[d]imidazol-5-yl)-2-(2-fluoro-6-methoxyphenyl)pyrimidine-4-carboxamide]
≥ 7.00	COc1cccc(F)c1-c1nccc(C(=O)Nc2ccc3c(nc(C(C)C)n3C)c2N2C[C@@H]3C[C@H]2CN3)n1 [Example 17, N-(4-((1S,4S)-2,5-Diazabicyclo[2.2.1]heptan-2-yl)-2-isopropyl-1-methyl-1H-benzo[d]imidazol-5-yl)-2-(2-fluoro-6-methoxyphenyl)pyrimidine-4-carboxamide]
≥ 7.00	COc1cccc(F)c1-c1nccc(C(=O)Nc2ccc3c(nc(-c4ccncc4F)n3C)c2N2CCC[C@H]2CN)n1 [Example 18, (S)—N-(4-(2-(Aminomethyl)pyrrolidin-1-yl)-2-(3-fluoropyridin-4-yl)-1-methyl-1H-benzo[d]imidazol-5-yl)-2-(2-fluoro-6-methoxyphenyl)pyrimidine-4-carboxamide]
≥ 7.00	COc1cccc(F)c1-c1nccc(C(=O)Nc2ccc3c(nc(-c4ccnn4C)n3C)c2N2CCC[C@H]2CN)n1 [Example 19, (S)—N-(4-(2-(Aminomethyl)pyrrolidin-1-yl)-1-methyl-2-(1-methyl-1H-pyrazol-5-yl)-1H-benzo[d]imidazol-5-yl)-2-(2-fluoro-6-methoxyphenyl)pyrimidine-4-carboxamide]
